These results are taken from patent US6800775B1, “Metal complexes of tripodal ligands” (Ciba Specialty Chemicals Corporation, priority 1999, dated 2004).

Experiment [1] in a line: DTI (dye transfer inhibition) test, white cotton in wash liquor with dissolved test dye. Conditions: complex 20 μmol/l wash liquor, 8.6 mmol/l H2O2, 40° C., 30 min; for DTI effect a(%) Dye 1: Direct Brown 172 10 mg/l of the 250% formulation; for DTI effect a(%) Dye 2: Reactive Blue 238 6 mg/l of the 100% formulation. How it is done:
The catalysts were tested for DTI activity. The DTI (dye transfer inhibition) effect a is defined as the following percentage:
a=([Y(E)−Y(A)]/[Y(W)−Y(A)])*100
where Y(W), Y(A) and Y(E) are the CIE lightnesses of the white material, of the material treated without added catalyst and of the material treated with added catalyst, in that order. a=0 characterizes a product of nil utility, the inclusion of which in the wash liquor does nothing to impede dye transfer. a=100%, by contrast, defines a perfect catalyst, which completely suppresses the tainting of the white material.
The test data are determined using the following testing system: 7.5 g of white cotton are treated in 80 ml of wash liquor. This liquor contains the standard detergent ECE phosphate-free (456 IEC) EMPA, Switzerland, in a concentration of 7.5g/l, 8.6 mmol/l H2O2, and a solution of the test dye. The washing process is carried out in a pot in a LINITEST apparatus at 40° C. for 30 min. Commercially available Direct Brown 172 (dye 1) at 10 mg/l of the 250% formulation or Reactive Blue 238 (dye 2) at 6 mg/l of the 100% formulation were used as test dyes. The reflectants spectra of the samples were measured with a SPECTRAFLASH 2000 and transformed into D65/10 lightnesses by the CIE standard procedure.
The manganese complexes are synthesized either as described in Example 13 or in situ by adding the corresponding manganese(III) salt in ethanolic solution. The complexes are always used at 20 μmol/l wash liquor. It is evident from the table that the recited catalysts are very effective DTI catalysts. […]

A short description of experiment [2]: Bleach test, tea stain on cotton fabric. Conditions: 100 μmol/l ligand; 8.6 mmol/l hydrogen peroxide; 40° C., 30 minutes; H2O2 only gives 18. On the procedure: The bleach tests are carried out as follows: 7.5 g of white cotton fabric and 2.5 g of a tea stain on cotton fabric are treated in 80 ml of wash liquor. This liquor contains the standard laundry detergent ECE phosphate-free (456 IEC) EMPA, Switzerland in a concentration of 7.5 g/l, hydrogen peroxides in a concentration of 8.6 mmol/l and optionally 100 μmol/l of one of the ligands according to the invention. The washing process takes place in a steel pot in a LINITEST apparatus at 40° C. for 30 minutes. The bleaching results are evaluated using the increase in lightness DY (lightness difference as per CIE) of the stain due to the treatment.

Each structure is given as a SMILES string.

On to `Oc1ccccc1/C=N\CCN(CC/N=C/c1ccccc1O)CC/N=C/c1ccccc1O` [Example 1, N,N′,N″-Tris[salicylideneaminoethyl]amine], for which, in experiment [1], the “DTI effect a(%) Dye 1” value was 91% and the “DTI effect a(%) Dye 2” value is reported as 96%.
As to `CCN(CC)c1ccc(C=NCCN(CCN=Cc2ccc(N(CC)CC)cc2O)CC/N=C/c2ccc(N(CC)CC)cc2O)c(O)c1` [Example 2, N,N′,N″-Tris[4-N-diethylaminosalicylideneaminoethyl]amine], in experiment [1], the “DTI effect a(%) Dye 1” value is 78% and the “DTI effect a(%) Dye 2” value stood at 73%. Also, the “DY with H2O2 and ligand (increase in lightness of the stain)” value in experiment [2] is on record as 21.
The matching figures for `CN(C)c1ccc(/C=N\CCN(CC/N=C/c2ccc(N(C)C)cc2O)CC/N=C/c2ccc(N(C)C)cc2O)c(O)c1` [Example 3, N,N′,N″-Tris[4-N-dimethylaminosalicylideneaminoethyl]amine]: 85%, 80% and 22.
Consider `COc1ccc(/C=N\CCN(CC/N=C/c2ccc(OC)cc2O)CC/N=C/c2ccc(OC)cc2O)c(O)c1` [Example 4, N,N′,N″-Tris[4-methoxysalicylideneaminoethyl]amine], for which, in experiment [1], the “DTI effect a(%) Dye 1” value was 83% and the “DTI effect a(%) Dye 2” value was determined as 67%.
Regarding `Oc1ccc(/C=N\CCN(CC/N=C/c2ccc(O)cc2O)CC/N=C/c2ccc(O)cc2O)c(O)c1` [Example 5, N,N′,N″-Tris[4-hydroxysalicylideneaminoethyl]amine], in experiment [1], the “DTI effect a(%) Dye 1” value turned out to be 78% and the “DTI effect a(%) Dye 2” value is reported as 27%.
The matching figures for `O=[N+]([O-])c1ccc(O)c(C=NCCN(CCN=Cc2cc([N+](=O)[O-])ccc2O)CC/N=C/c2cc([N+](=O)[O-])ccc2O)c1` [Example 6, N,N′, N″-Tris[5-nitrosalicylideneaminoethyl]amine]: 70% and 80%.
In the case of `CC(C)N(C)c1ccc(C=NCCN(CCN=Cc2ccc(N(C)C(C)C)cc2O)CC/N=C/c2ccc(N(C)C(C)C)cc2O)c(O)c1` [Example 7, N,N′,N″-Tris[(4-N-methyl-N-isopropylamino)salicylideneaminoethyl]amine], in experiment [1], the “DTI effect a(%) Dye 1” value is recorded as 84% and the “DTI effect a(%) Dye 2” value was 83%. The “DY with H2O2 and ligand (increase in lightness of the stain)” value in experiment [2] is on record as 21.
The matching figures for `CCN(C)c1ccc(C=NCCN(CCN=Cc2ccc(N(C)CC)cc2O)CC/N=C/c2ccc(N(C)CC)cc2O)c(O)c1` [Example 8, N,N′,N″-Tris[(4-N-methyl-N-ethylamino)salicylideneaminoethyl]amine]: 85%, 81% and 22.
Consider `Cc1ccc(C=NCCN(CCN=Cc2ccc(C)cc2O)CC/N=C/c2ccc(C)cc2O)c(O)c1` [Example 9, N,N′,N″-Tris[4-methylsalicylideneaminoethyl]amine], for which, in experiment [1], the “DTI effect a(%) Dye 1” value turned out to be 87% and the “DTI effect a(%) Dye 2” value is 94%.
On the same counts, the results for `C[N+](C)(C)c1ccc(C=NCCN(CCN=Cc2ccc([N+](C)(C)C)cc2O)CC/N=C/c2ccc([N+](C)(C)C)cc2O)c(O)c1.[Br-].[Br-].[Br-]` [Example 10, N,N′, N″-Tris[4-trimethylammoniosalicylideneaminoethyl]amine tribromide] are 90% and 96%.
Take `C[N+](C)(C)c1ccc(O)c(C=NCCN(CCN=Cc2cc([N+](C)(C)C)ccc2O)CC/N=C/c2cc([N+](C)(C)C)ccc2O)c1.[Br-].[Br-].[Br-]` [Example 11, N,N′,N″-Tris[5-trimethylammoniosalicylideneaminoethyl]amine tribromide]: in experiment [1], the “DTI effect a(%) Dye 1” value is on record as 86% and the “DTI effect a(%) Dye 2” value is on record as 94%.
The matching figures for `O=S(=O)([O-])c1ccc(O)c(C=NCCN(CCN=Cc2cc(S(=O)(=O)[O-])ccc2O)CC/N=C/c2cc(S(=O)(=O)[O-])ccc2O)c1.[Na+].[Na+].[Na+]` [Example 12, N,N′,N″-Tris[5-sulfonatosalicylideneaminoethyl]amine, trisodium salt]: 80% and 99%.
